Data as given in patent US9012655B2, “Antimicrobial/adjuvant compounds and methods” (Denouamed, Inc., priority 2011, dated 2015).
Values after ≈ are worked out from the molar mass of the structure shown. Where two headings read alike, the source gives them in different places.

Key:
Assay in all cases: MIC panel of challenge pathogens (CLSI)
Format in all cases: cell-based
[1] = tested on: Staphylococcus epidermidis NRS7
Method: (§1) The inocula for each bacterial strain were prepared by picking 5-10 distinct colonies from the culture plates and suspending them in the appropriate broth as per Clinical and Laboratory Standards Institute (CLSI) guidelines M07-A8, M24-A or M11-A7 as appropriate. The inoculum was resuspended by vigorous shaking on a vortex mixer for 15 s. The turbidity was then adjusted to McFarland standard 0.5 ([…]). The inoculum was further diluted in the appropriate media for MIC tests to give a final inoculum in each well of 2-8×10^5 CFU/ml. MICs were tested in the appropriate broth in accordance with the appropriate CLSI guidelines.
(§2) A stock solution of each compound was prepared at a concentration of 1.28 g/L in DMSO. The stock was further diluted in the appropriate media to give a top starting concentration of 128 mg/L in the assay. 100 μL of the appropriate media, as per CLSI guidelines, was dispensed into each well in columns 2-12. 200 μL of the each compound solution (at 256 mg/L) was dispensed into each well in column 1. 100 μL aliquots were pipetted from column 1 wells and dispensed into column 2 with a multichannel pipette (±2% coefficient of variation) thus diluting two-fold. 100 μL samples were then pipetted from column 2 wells and dispensed into column 3. The process was repeated through to column 10. The final 100 μL of diluted drug from column 10 was then discarded. Row 11 acted as a positive control (no compound, but organisms added), Row 12 acted as a negative control (no compound, and no organisms added).
(§3) 100 μL of the appropriate inoculum suspension in the appropriate media, as per CLSI guidelines, was added to the appropriate wells. […] All plates were incubated in the dark under aerobic or anaerobic conditions at 30-37° C. for 24-48 hours, according to the appropriate CLSI guideline. Plates were read visually 24-48 hours post inoculation. Endpoints of 100% inhibition were determined (CLSI interpretation endpoints following visual examination).
(§4) MIC50, MIC80, and 100% inhibition results are reported below in μg/mL in the following Tables, indicating each compound tested against a given species and strain: […]

[2] = tested on: Staphylococcus aureus NRS383
Method: as §1, §2, §3, §4

[3] = tested on: Enterococcus faecium ATCC700221
Method: as §1, §2, §3, §4

[4] = tested on: Enterococcus faecalis ATCC29212
Method: as §1, §2, §3, §4

[5] = tested on: Staphylococcus aureus EUP MRSA002
Method: as §1, §2, §3, §4

[6] = tested on: Staphylococcus aureus NRS1 (ATCC700699); details: for MIC: read-out: 100% inhibition; for MIC50: read-out: MIC50 (50%); for MIC80: read-out: MIC80 (80%)
Method: as §1, §2, §3, §4

[7] = tested on: Staphylococcus aureus AUR60 7005
Method: as §1, §2, §3, §4

[8] = tested on: Staphylococcus aureus AUR131 007035
Method: as §1, §2, §3, §4

[9] = Staphylococcus epidermidis NRS7, read-out: 100% inhibition
[10] = Staphylococcus epidermidis NRS7, read-out: MIC50 (50%)
[11] = Staphylococcus epidermidis NRS7, read-out: MIC80 (80%)
[12] = Staphylococcus aureus NRS383, read-out: 100% inhibition
[13] = Staphylococcus aureus NRS383, read-out: MIC50 (50%)
[14] = Staphylococcus aureus NRS383, read-out: MIC80 (80%)
[15] = Enterococcus faecium ATCC700221, read-out: 100% inhibition
[16] = Enterococcus faecium ATCC700221, read-out: MIC50 (50%)
[17] = Enterococcus faecium ATCC700221, read-out: MIC80 (80%)
[18] = Enterococcus faecalis ATCC29212, read-out: 100% inhibition
[19] = Enterococcus faecalis ATCC29212, read-out: MIC50 (50%)
[20] = Enterococcus faecalis ATCC29212, read-out: MIC80 (80%)
[21] = EUPMRSA002, Staphylococcus aureus EUP MRSA002, read-out: 100% inhibition
[22] = EUPMRSA002, Staphylococcus aureus EUP MRSA002, read-out: MIC50 (50%)
[23] = EUPMRSA002, Staphylococcus aureus EUP MRSA002, read-out: MIC80 (80%)
[24] = Staphylococcus aureus NRS1 (ATCC700699)
[25] = AUR607005, Staphylococcus aureus AUR60 7005, read-out: 100% inhibition
[26] = AUR607005, Staphylococcus aureus AUR60 7005, read-out: MIC50 (50%)
[27] = AUR607005, Staphylococcus aureus AUR60 7005, read-out: MIC80 (80%)
[28] = AUR131007035, Staphylococcus aureus AUR131 007035, read-out: 100% inhibition
[29] = AUR131007035, Staphylococcus aureus AUR131 007035, read-out: MIC50 (50%)
[30] = AUR131007035, Staphylococcus aureus AUR131 007035, read-out: MIC80 (80%)

## CN[C@H](CC(C)C)C(=O)N[C@H]1C(=O)N[C@@H](CC(N)=O)C(=O)N[C@H]2C(=O)N[C@H]3C(=O)N[C@H](C(=O)N[C@H](C(=O)O)c4cc(O)cc(O)c4-c4cc3ccc4O)[C@H](O)c3ccc(c(Cl)c3)Oc3cc2cc(c3O[C@@H]2O[C@H](CO)[C@@H](O)[C@H](O)[C@H]2O[C@H]2C[C@](C)(N)[C@H](O)[C@H](C)O2)Oc2ccc(cc2Cl)[C@H]1O [Vancomycin, reference compound]
[1]; Staphylococcus epidermidis, NRS7, read-out: 100% inhibition
  MIC: 4 µg/mL (≈ 2.76 µM)
[1]; Staphylococcus epidermidis, NRS7, read-out: MIC50 (50%)
  MIC50: 2 µg/mL (≈ 1.38 µM)
[1]; Staphylococcus epidermidis, NRS7, read-out: MIC80 (80%)
  MIC80: 4 µg/mL (≈ 2.76 µM)
[2]; Staphylococcus aureus, NRS383, read-out: 100% inhibition
  MIC: 0.5 µg/mL (≈ 0.345 µM)
[2]; Staphylococcus aureus, NRS383, read-out: MIC50 (50%)
  MIC50: 0.5 µg/mL (≈ 0.345 µM)
[2]; Staphylococcus aureus, NRS383, read-out: MIC80 (80%)
  MIC80: 0.5 µg/mL (≈ 0.345 µM)
[3]; Enterococcus faecium, ATCC700221, read-out: 100% inhibition
  MIC: > 16 µg/mL
[3]; Enterococcus faecium, ATCC700221, read-out: MIC50 (50%)
  MIC50: > 16 µg/mL
[3]; Enterococcus faecium, ATCC700221, read-out: MIC80 (80%)
  MIC80: > 16 µg/mL
[4]; Enterococcus faecalis, ATCC29212, read-out: 100% inhibition
  MIC: 4 µg/mL (≈ 2.76 µM)
[4]; Enterococcus faecalis, ATCC29212, read-out: MIC50 (50%)
  MIC50: 4 µg/mL (≈ 2.76 µM)
[4]; Enterococcus faecalis, ATCC29212, read-out: MIC80 (80%)
  MIC80: 4 µg/mL (≈ 2.76 µM)
[5]; Staphylococcus aureus, EUPMRSA002, read-out: 100% inhibition
  MIC: 0.5 µg/mL (≈ 0.345 µM)
[5]; Staphylococcus aureus, EUPMRSA002, read-out: MIC50 (50%)
  MIC50: 0.5 µg/mL (≈ 0.345 µM)
[5]; Staphylococcus aureus, EUPMRSA002, read-out: MIC80 (80%)
  MIC80: 0.5 µg/mL (≈ 0.345 µM)
[6]; Staphylococcus aureus
  MIC: 4 µg/mL (≈ 2.76 µM)
  MIC50: 2 µg/mL (≈ 1.38 µM)
  MIC80: 4 µg/mL (≈ 2.76 µM)
[7]; Staphylococcus aureus, AUR607005, read-out: 100% inhibition
  MIC: 1 µg/mL (≈ 0.69 µM)
[7]; Staphylococcus aureus, AUR607005, read-out: MIC50 (50%)
  MIC50: 0.5 µg/mL (≈ 0.345 µM)
[7]; Staphylococcus aureus, AUR607005, read-out: MIC80 (80%)
  MIC80: 1 µg/mL (≈ 0.69 µM)
[8]; Staphylococcus aureus, AUR131007035, read-out: 100% inhibition
  MIC: 0.5 µg/mL (≈ 0.345 µM)
[8]; Staphylococcus aureus, AUR131007035, read-out: MIC50 (50%)
  MIC50: 0.5 µg/mL (≈ 0.345 µM)
[8]; Staphylococcus aureus, AUR131007035, read-out: MIC80 (80%)
  MIC80: 0.5 µg/mL (≈ 0.345 µM)

## CCCCc1cccc(-c2cc(-c3nnn[nH]3)sc2Cc2ccc(Cl)cc2)c1 [DNM0606, 5-(4-(3-Butylphenyl)-5-(4-chlorobenzyl)thiophen-2-yl)-1H-tetrazole]
[1]; [9]
  MIC: 1 µg/mL (≈ 2.45 µM)
[1]; [10]
  MIC50: 0.5 µg/mL (≈ 1.22 µM)
[1]; [11]
  MIC80: 0.5 µg/mL (≈ 1.22 µM)
[2]; [12]
  MIC: ≤ 0.25 µg/mL
[2]; [13]
  MIC50: ≤ 0.25 µg/mL
[2]; [14]
  MIC80: ≤ 0.25 µg/mL
[3]; [15]
  MIC: 1 µg/mL (≈ 2.45 µM)
[3]; [16]
  MIC50: 1 µg/mL (≈ 2.45 µM)
[3]; [17]
  MIC80: 1 µg/mL (≈ 2.45 µM)
[4]; [18]
  MIC: 1 µg/mL (≈ 2.45 µM)
[4]; [19]
  MIC50: 1 µg/mL (≈ 2.45 µM)
[4]; [20]
  MIC80: 1 µg/mL (≈ 2.45 µM)
[5]; [21]
  MIC: 0.5 µg/mL (≈ 1.22 µM)
[5]; [22]
  MIC50: 0.5 µg/mL (≈ 1.22 µM)
[5]; [23]
  MIC80: 0.5 µg/mL (≈ 1.22 µM)
[6]; [24]
  MIC: 0.5 µg/mL (≈ 1.22 µM)
  MIC50: 0.5 µg/mL (≈ 1.22 µM)
  MIC80: 0.5 µg/mL (≈ 1.22 µM)
[7]; [25]
  MIC: 0.5 µg/mL (≈ 1.22 µM)
[7]; [26]
  MIC50: 0.5 µg/mL (≈ 1.22 µM)
[7]; [27]
  MIC80: 0.5 µg/mL (≈ 1.22 µM)
[8]; [28]
  MIC: 0.5 µg/mL (≈ 1.22 µM)
[8]; [29]
  MIC50: 0.5 µg/mL (≈ 1.22 µM)
[8]; [30]
  MIC80: 0.5 µg/mL (≈ 1.22 µM)

## CC(C)c1cc(Cl)ccc1-c1cc(C(=O)O)sc1-c1ccc(Cl)cc1C(C)C [DNM0566, 4,5-Bis(4-chloro-2-isopropylphenyl)thiophene-2-carboxylic acid]
[1]; [9]
  MIC: 1 µg/mL (≈ 2.31 µM)
[1]; [10]
  MIC50: 1 µg/mL (≈ 2.31 µM)
[1]; [11]
  MIC80: 1 µg/mL (≈ 2.31 µM)
[2]; [12]
  MIC: ≤ 0.25 µg/mL
[2]; [13]
  MIC50: ≤ 0.25 µg/mL
[2]; [14]
  MIC80: ≤ 0.25 µg/mL
[3]; [15]
  MIC: 0.5 µg/mL (≈ 1.15 µM)
[3]; [16]
  MIC50: 0.25 µg/mL (≈ 0.577 µM)
[3]; [17]
  MIC80: 0.25 µg/mL (≈ 0.577 µM)
[4]; [18]
  MIC: 0.5 µg/mL (≈ 1.15 µM)
[4]; [19]
  MIC50: 0.5 µg/mL (≈ 1.15 µM)
[4]; [20]
  MIC80: 0.5 µg/mL (≈ 1.15 µM)
[5]; [21]
  MIC: ≤ 0.25 µg/mL
[5]; [22]
  MIC50: ≤ 0.25 µg/mL
[5]; [23]
  MIC80: ≤ 0.25 µg/mL
[6]; [24]
  MIC: ≤ 0.25 µg/mL
  MIC50: ≤ 0.25 µg/mL
  MIC80: ≤ 0.25 µg/mL
[7]; [25]
  MIC: 0.5 µg/mL (≈ 1.15 µM)
[7]; [26]
  MIC50: 0.5 µg/mL (≈ 1.15 µM)
[7]; [27]
  MIC80: 0.5 µg/mL (≈ 1.15 µM)
[8]; [28]
  MIC: ≤ 0.25 µg/mL
[8]; [29]
  MIC50: ≤ 0.25 µg/mL
[8]; [30]
  MIC80: ≤ 0.25 µg/mL
